Measurements: patent US6127337A, “Bivalent thrombin inhibitors” (National Research Council of Canada, priority 1993, dated 2000)
Where two headings read alike, the source gives them in different places.

Assays:
[1] = system: carotid injury-induced thrombosis; experiment: FeCl3 induced arterial injury model (carotid injury-induced thrombosis); assay type: in vivo; conditions: rat; for Dose to double occlusion time: control occlusion time 19 ± 1 min; for Dose to achieve patency at 60 min.: patency defined by no drop in vessel temperature
Protocol: […]: Rat, male, Sprague-Dawley. Weight: 375-450 g The FeCl3 induced arterial injury model assays were conducted according to Kurz, K. D., Main, […]., Thrombosis research 60; 269-280, 1990 and Schumacher, W. A. et al. J. pharmacology and experimental therapeutics 267; 1237-1242, 1993. Male, Sprague-Dawley (375-450 g) are anesthetized with Urethane (1500 mg/kg IP). Animals are laid on a heating pad which is maintained at 37° C. The carotid artery is approached through a midline cervical incision. Carefully blunt dissection is used to expose and isolate the vessel from the carotid sheath. Using forceps, the artery is lifted to provide clearance to insert two small polyethylene tubing (PE-205) underneath it. The temperature probe (Physitemp MT23/3 )TM is placed between the PE-205 and the artery. The vessel temperature is monitored for 60 minutes after application of FeCl3. Vessel temperature changes are recorded on a thermister (Cole-Palmer Model 08533-41). Injury is induced by application of a small disc (3 mm dia.) of WhatmanTM No.1 filter paper previously dipped in a 35% solution of FeCl3 on the carotid artery above the temperature probe. The site of the experiment is covered with in Aluminum foil in order to protect the FeCl3 from degradation by light. […] Before the start of the experiment, one blood sample is drawn (1 ml) in a tube of 0.105M buffered citrate solution (from the eye's sinus) and the animal is exsanguinated at the end. All the samples are kept on ice and centrifuged as soon as possible at 2000 Rpm for 10 min., 4° C. The plasma is analyzed in duplicate for activated partial thromboplastin time on a haemostasis analyzer (STAGO ST4TM). From a group of four animals, two arteries are stored at -80C for further analysis.

human thrombin = target: T1, human thrombin (Homo sapiens, UniProt P00734); experiment: Inhibition of amidolytic activity of human thrombin (fluorogenic, Tos-Gly-Pro-Arg-AMC), Ki; assay type: biochemical
T1 construct: Human α-thrombin (3,000 NIH units/mg); purchased Sigma
Protocol: Materials. The chromogenic and fluorogenic substrates Tosyl-Gly-Pro-Arg-pNAand Tos-Gly-Pro-Arg-AMC were purchased from Boehringer Manheim and Sigma, respectively. […] Initial velocities were recorded at several inhibitor concentrations and kinetic parameters were determined by fitting the data to a general equation describing enzyme inhibition (Segel, 1975). The data were analyzed using the non-linear regression program RNLIN in the IMSL library (IMSL, 1987) on a microVAX™ 3500 computer. […] Fluorogenic assays were conducted using the same conditions and instrument as above operating in the fluorescence mode in the ratio (λex =383 nm, λem =455 nm) Fluorescence intensities were calibrated with 7-amino-4-methyl coumarin solution of known concentration
Determination of Thrombin Inhibitory Dissociation Constants KI
The steady-state velocity was then measured for a few minutes. The compounds of this invention were also pre-incubated with thrombin for 20 min at room temperature before adding the substrate. […] The kinetic data (the steady-state velocity at various concentrations of the substrate and the inhibitors) of the competitive inhibition was analyzed using the methods described by Segel (1975). A non-linear regression program, RNLIN in the IMSL library (IMSL, 1987), LMDER in MINPACK library (More et al., 1980) or Microsoft™ Excell™, was used to estimate the kinetic parameters (Km Vmax and Ki). The biological data are reported on tables I-V.

[2] = Table IV, no assay number given, read-out: Ki
[3] = FIG. 1 Dixon plot, human α-thrombin 0.033 NIH unit/mL, pH 7.8, 25° C., read-out: Ki
[4] = Table II, various active site inhibitor segments, human thrombin 3.0×10^-11 M, read-out: Ki
[5] = Table III, various linker segments, human thrombin 3.0×10^-11 M, read-out: Ki
[6] = Table IV, results from assay no. 1, read-out: Ki
[7] = Table IV, results from assay no. 2, read-out: Ki

Question: Which “Dose to double occlusion time” value [1] does the source give for “4-tert-Butyl-benzene sulfonyl-Arg-(D-Pipecolic acid)-(12-aminododecanoic acid)-4-aminobutyric acid)-Asp-Phe-Glu-Glu-Ile-Pro-Glu-Glu-Tyr-Leu-Gln-OH [Peptide P552]” here?
Answer: 0.5 mg/kg i.v. bolus

Question: What about the “Dose to achieve patency at 60 min.” value [1] of the same molecule?
Answer: ≥ 2 mg/kg i.v. bolus

Question: How did the Ki (human thrombin; [2]) turn out when “4-tert-butylbenzenesulfonyl-Arg-(D-pipecolic acid)-(12-aminododecanoic acid)-4-aminobutyric acid)-Asp-Tyr-Glu-Pro-Ile-Pro-Glu-Glu-Ala-(L-β-cyclohexylalanine)-(D- Glu)-OH [Peptide P553]” was run?
Answer: 0.003 ± 0.0004 nM

Question: What about the “Dose to double occlusion time” value [1] of the same molecule?
Answer: 0.25 mg/kg i.v. bolus

Question: What about the “Dose to achieve patency at 60 min.” value [1] of the same molecule?
Answer: 0.5-1 mg/kg i.v. bolus

Question: How did the Ki (human thrombin; [3]) turn out when `CC[C@H](C)[C@H](NC(=O)[C@H](CCC(=O)O)NC(=O)[C@H](CCC(=O)O)NC(=O)[C@H](Cc1ccccc1)NC(=O)[C@H](CC(=O)O)NC(=O)CCCCNC(=O)CNC(=O)CNC(=O)CCNC(=O)[C@H]1CCCCN1C(=O)[C@H](CCCNC(=N)N)NS(=O)(=O)c1cccc2c(N(C)C)cccc12)C(=O)N1CCC[C@H]1C(=O)N[C@@H](CCC(=O)O)C(=O)N[C@@H](CCC(=O)O)C(=O)N[C@@H](Cc1ccc(O)cc1)C(=O)N[C@@H](CC(C)C)C(=O)N[C@@H](CCC(N)=O)C(=O)O` [Peptide P498] was run?
Answer: 0.131 ± 0.022 nM

Question: And the Ki (human thrombin; read-out: Ki value)?
Answer: < 1 nM

Question: For “(D-Phe)-Arg-(D-Pipecolic acid)(12-aminododecanoic acid)-4-aminobutyric acid)-Asp-Phe-Glu-Glu-Ile-Pro-Glu-Glu-Tyr-Leu-Gln-OH [Peptide P483]”, which Ki (human thrombin; [4]) is on record?
Answer: 54.9 ± 6.6 nM

Question: For “(D-β-cyclohexylalanine)-Arg-(D-Pipecolic acid)-(12-aminododecanoic acid)-4-aminobutyric acid)-Asp-Phe-Glu-Glu-Ile-Pro-Glu-Glu-Tyr-Leu-Gln-OH [Peptide P481]”, which Ki (human thrombin; [4]) is on record?
Answer: 9.51 ± 0.16 nM

Question: Which results are given for “benzyl sulfonyl-Arg-(D-Pipecolic acid)-(12-aminododecanoic acid)-4-aminobutyric acid)-Asp-Phe-Glu-Glu-Ile-Pro-Glu-Glu-Tyr-Leu-Gln-OH [Peptide P556]”?
Answer: Ki (human thrombin; [4]): 0.137 ± 0.026 nM; Ki (human thrombin; read-out: Ki value): < 1 nM

Question: Which Ki (human thrombin; [4]) does the source give for “dansyl-(D-Arg)-(D-Pipecolic acid)-(12-aminododecanoic acid)-4-aminobutyric acid)-Asp-Phe-Glu-Glu-Ile-Pro-Glu-Glu-Tyr-Leu-Gln-OH [Peptide P492]” here?
Answer: 1.02 ± 0.38 nM

Question: How did the Ki (human thrombin; [4]) turn out when “dansyl-Arg-1,2,3,4-tetrahydroisoquinoline-3-carboxylic acid-(12-aminododecanoic acid)-4-aminobutyric acid)-Asp-Phe-Glu-Glu-Ile-Pro-Glu-Glu-Tyr-Leu-Gln-OH (RXXXDFEEIPEEYLQ; dansyl-Arg-Tic-aminododecanoic-aminobutyric N-terminal extension) [Peptide P471]” was run?
Answer: 0.285 ± 0.04 nM

Question: How did the Ki (human thrombin; [4]) turn out when “dansyl-Arg-(D)1-amino cyclohexane carboxylic acid-(12-aminododecanoic acid)-4-aminobutyric acid)-Asp-Phe-Glu-Glu-Ile-Pro-Glu-Glu-Tyr-Leu-Gln-OH [Peptide P473]” was run?
Answer: 36.3 ± 10.3 nM

Question: “dansyl-Arg-(D-Pipecolic acid)-(4-aminobutyric acid)-glycyl)-Asp-Phe-Glu-Glu-Ile-Pro-Glu-Glu-Tyr-Leu-Gln-OH [Peptide P514]” was tested. Which Ki (human thrombin; [5]) did it give?
Answer: 6800 ± 1640 nM

Question: Which Ki (human thrombin; [5]) does the source give for “dansyl-Arg-(D-Pipecolic acid)-(7-aminoheptanoic acid)-glycyl)-Asp-Phe-Glu-Glu-Ile-Pro-Glu-Glu-Tyr-Leu-Gln-OH (RXXGDFEEIPEEYLQ; dansyl, D-pipecolic acid, aminoheptanoic acid-glycyl linker) [Peptide P524]” here?
Answer: 1480 ± 170 nM

Question: For “dansyl-Arg-(D-Pipecolic acid)-(8-aminocaproicacid)-4-aminobutyric acid)-Asp-Phe-Glu-Glu-Ile-Pro-Glu-Glu-Tyr-Leu-Gln-OH [Peptide P528]”, which Ki (human thrombin; [5]) is on record?
Answer: 0.521 ± 0.086 nM

Question: And the Ki (human thrombin; read-out: Ki value)?
Answer: < 1 nM

Question: Which results are given for “dansyl-Arg-(D-pipecolic acid)-(12-aminododecanoic acid)-4-aminobutyric acid)-Asp-Phe-Glu-Glu-Ile-Pro-Glu-Glu-Tyr-Leu-Gln-OH [Peptide P448]”?
Answer: Ki (human thrombin; [3]): 0.017 ± 0.0042 nM; Dose to double occlusion time [1]: 1.0 mg/kg i.v. bolus; Dose to achieve patency at 60 min. [1]: > 2 mg/kg i.v. bolus

Question: Which results are given for “dansyl-Arg-(D-pipecolic acid)-(12-aminododecanoic acid)-4-aminobutyric acid)-Asp-Tyr-Glu-Pro-Ile-Pro-Glu-Glu-Ala-(L-β-cyclohexylalanine)-(D- Glu)-OH [Peptide P535]”?
Answer: Ki (human thrombin; [6]): 0.00123 ± 0.00026 nM; Ki (human thrombin; [7]): 0.002 ± 0.0004 nM

Question: For “dansyl-Arg-(D-β-cyclohexylalanine)-(12-aminododecanoic acid)-4-aminobutyric acid)-Asp-Phe-Glu-Glu-Ile-Pro-Glu-Glu-Tyr-Leu-Gln-OH [Peptide P472]”, which Ki (human thrombin; [4]) is on record?
Answer: 17.1 ± 3.1 nM

Question: With “dansyl-Arg-(L-Pip)-(4-aminobutyric acid-glycyl)-Asp-Phe-Glu-Glu-Ile-Pro-Glu-Glu-Tyr-Leu-Gln-OH [Peptide P409]” as the molecule, how does the Ki (human thrombin; Table III, various linker segments, human thrombin 3.0×10^-11 M) read?
Answer: no inhibition

Question: With “dansyl-Arg-(L-pipecolic acid)-(12-aminododecanoic acid)-4-aminobutyric acid)-Asp-Phe-Glu-Glu-Ile-Pro-Glu-Glu-Tyr-Leu-Gln-OH [Peptide P447]” as the molecule, how does the Ki (human thrombin; [4]) read?
Answer: 12.4 ± 1.8 nM

Question: For “dansyl-Cha-(D-Pipecolic acid)-(12-aminododecanoic acid)-4-aminobutyric acid)-Asp-Phe-Glu-Glu-Ile-Pro-Glu-Glu-Tyr-Leu-Gln-OH [Peptide P477]”, which Ki (human thrombin; [4]) is on record?
Answer: 5.85 ± 0.098 nM

Question: How did the Ki (human thrombin; [4]) turn out when “dansyl-Nle-(D-Pipecolic acid)-(12-aminododecanoic acid)-4-aminobutyric acid)-Asp-Phe-Glu-Glu-Ile-Pro-Glu-Glu-Tyr-Leu-Gln-OH [Peptide P493]” was run?
Answer: 5.2 ± 1.31 nM

Question: With “dansyl-Phe-(D-Pipecolic acid)-(12-aminododecanoic acid)-4-aminobutyric acid)-Asp-Phe-Glu-Glu-Ile-Pro-Glu-Glu-Tyr-Leu-Gln-OH [Peptide P476]” as the molecule, how does the Ki (human thrombin; [4]) read?
Answer: 2.62 ± 0.2 nM

Question: Which Ki (human thrombin; [4]) does the source give for “fmoc-Arg-(D-Pipecolic acid)(12-aminododecanoic acid)-4-aminobutyric acid)-Asp-Phe-Glu-Glu-Ile-Pro-Glu-Glu-Tyr-Leu-Gln-OH [Peptide P484]” here?
Answer: 14.8 ± 1.2 nM

Question: Which Ki (human thrombin; [4]) does the source give for “α-naphthyl sulfonyl-Arg-(D-Pipecolic acid)-(12-aminododecanoic acid)-4-aminobutyric acid)-Asp-Phe-Glu-Glu-Ile-Pro-Glu-Glu-Tyr-Leu-Gln-OH [Peptide P531]” here?
Answer: 0.032 ± 0.001 nM

Question: And the “Dose to double occlusion time” value [1]?
Answer: 0.5 mg/kg i.v. bolus

Question: What about the “Dose to achieve patency at 60 min.” value [1] of the same molecule?
Answer: > 2 mg/kg i.v. bolus

Question: For “α-naphthyl sulfonyl-arginyl D-pipecolic acid-(12-aminododecanoic acid)-4-aminobutyric acid)-Asp-Tyr-Glu-Pro-Ile-Pro-Glu-Glu-Ala-(L-β-cyclohexylalanine)-(D- Glu)-OH [Peptide P581]”, which Ki (human thrombin; [2]) is on record?
Answer: 0.0145 ± 0.0009 nM

Question: And the “Dose to double occlusion time” value [1]?
Answer: 0.5 mg/kg i.v. bolus

Question: What about the “Dose to achieve patency at 60 min.” value [1] of the same molecule?
Answer: 1 mg/kg i.v. bolus

Question: Which Ki (human thrombin; [4]) does the source give for “β-naphthyl sulfonyl-Arg-(D-Pipecolic acid)-(12-aminododecanoic acid)-4-aminobutyric acid)-Asp-Phe-Glu-Glu-Ile-Pro-Glu-Glu-Tyr-Leu-Gln-OH [Peptide P532]” here?
Answer: 0.024 ± 0.004 nM

Question: And the “Dose to double occlusion time” value [1]?
Answer: 0.5-1 mg/kg i.v. bolus

Question: What about the “Dose to achieve patency at 60 min.” value [1] of the same molecule?
Answer: 1-2 mg/kg i.v. bolus

Question: What does the source list for “β-naphthyl sulfonyl-arginyl D-pipecolic acid-(12-aminododecanoic acid)-4-aminobutyric acid)-Asp-Tyr-Glu-Pro-Ile-Pro-Glu-Glu-Ala-(L-β-cyclohexylalanine)-(D- Glu)-OH [Peptide P551]”?
Answer: Ki (human thrombin; [6]): 0.0033 ± 0.00016 nM; Ki (human thrombin; [7]): 0.0042 ± 0.0002 nM; Dose to double occlusion time [1]: 0.5-1 mg/kg i.v. bolus; Dose to achieve patency at 60 min. [1]: 1-2 mg/kg i.v. bolus
